Assay results: patent US9850522B2, “One-step rapid assay for the detection of inhibitors of enzymes” (priority 2013, dated 2017)
Marks after values point to notes of the source that are not given here.

Tests used:
AChE from eel = molecular target: T1, AChE from eel (Electrophorus electricus, UniProt O42275); test: AChE test ticket, fluorescence (NMI substrate), reader hue ratio; format: biochemical
T1 construct: purchased Sigma-Aldrich
Description: N-methyl indoxyl (NMI) acetate (100 mg, Sigma-Aldrich) was dissolved in 100 mil, 100% USP ethyl alcohol (Sigma-Aldrich) for a final concentration of […]. Strips of porous matrix Surewick Sample Pad C248 (Millipore) were saturated with this NMI solution and dried at 45° C. for two hours. The strips were then removed from the oven and stored in a resealable plastic bag with desiccant.
AChE from eel (Sigma-Aldrich) was dissolved to a final concentration of 2.2 units/mL in a buffer containing 10 mM potassium phosphate, 5% sucrose and 0.5% BSA at pH=7.4 and passed through a 0.22 μm filter. Strips of Millipore GFCP20300 glass fiber were pretreated by soaking with a mixture of 2% sucrose and 2% Triton in 6.25 mM borate buffer and dried at 45° C. in an oven for 2 hours. These glass fiber strips were then saturated with the solution of AChE and dried for 2 hours at 45° C. The strips were then removed from the oven and stored in a resealable plastic bag with desiccant.
To an adhesive-coated plastic backing, card (G&L) cut to 3×27 cm, is attached the fluid transfer membrane (nitrocellulose membrane) at a distance of 10 mm from the card bottom edge. The enzyme sample pad is attached flush to the bottom edge of the backing card overlapping the nitrocellulose membrane strip. The substrate pad is then attached flush to the other edge of the backing card (top edge), overlapping the nitrocellulose membrane. The assembled cards are then cut into 6.75 mm wide×16 mm long test strips using an automated guillotine cutter.
A stock solution (1 mg/mL) of the carbamate pesticide, oxamyl (Supelco), was prepared in methanol, then serially diluted in purified water to a final concentration of 0.1 mg/L for use as a test sample. […]
All tickets were then allowed to run for 15 minutes, then were inserted into a reader comprised of low light color cameras, 400 nm UV LED and custom color analysis software (FIG. 6). The reader calculates a ratio of the hue measured in the test sample site at the substrate pad to the hue measured in the negative control site at the substrate pad. […]

acetylcholinesterase = acetylcholinesterase (Electrophorus electricus, UniProt O42275); test: Colorimetric test ticket, acetylcholinesterase strip; format: biochemical; conditions: 1 ppm; positive result, lack of blue color
Chain of acetylcholinesterase (O42275 24-633): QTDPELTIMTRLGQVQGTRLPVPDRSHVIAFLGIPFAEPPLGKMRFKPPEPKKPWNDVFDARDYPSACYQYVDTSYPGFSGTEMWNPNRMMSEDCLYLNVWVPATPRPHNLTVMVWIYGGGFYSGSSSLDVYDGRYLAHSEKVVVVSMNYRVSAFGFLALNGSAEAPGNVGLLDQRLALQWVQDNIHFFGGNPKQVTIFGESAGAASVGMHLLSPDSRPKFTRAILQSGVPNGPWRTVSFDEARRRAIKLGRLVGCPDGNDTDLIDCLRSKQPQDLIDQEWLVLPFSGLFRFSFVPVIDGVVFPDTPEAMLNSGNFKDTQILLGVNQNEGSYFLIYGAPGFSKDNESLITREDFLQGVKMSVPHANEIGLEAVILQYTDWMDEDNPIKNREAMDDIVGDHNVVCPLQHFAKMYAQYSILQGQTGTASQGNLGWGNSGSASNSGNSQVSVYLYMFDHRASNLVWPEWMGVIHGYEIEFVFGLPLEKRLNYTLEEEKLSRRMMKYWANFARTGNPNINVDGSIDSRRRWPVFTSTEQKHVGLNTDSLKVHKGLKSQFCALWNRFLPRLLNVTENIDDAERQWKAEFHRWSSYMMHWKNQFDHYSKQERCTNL

T1 sequence (O42275 24-633): as above

CNC(=O)O/N=C(\SC)C(=O)N(C)C [Oxamyl, oxamyl]
Reactivity with AChE (AChE from eel): reacts strongly with AChE | Fluorescence hue ratio (AChE from eel; tested with AChE, 0.1 mg/L in purified water, test sample well:control well, 15 minutes run): 2.82* | Result (AChE from eel; tested with AChE, 0.1 mg/L, hue ratio cutoff of 1.25): Positive (a ratio greater than 1.25 is considered positive) | Result of colorimetric test ticket (FIG. 14 C) (acetylcholinesterase): inhibits acetylcholinesterase
